According to US10669258B2, “3-sulfonyl-5-aminopyridine-2,4-diol APJ agonists” (BRISTOL-MYERS SQUIBB COMPANY, priority 2016, dated 2020):

The molecules below were run against T1, human APJ receptor (Homo sapiens, UniProt P35414) (assay: Intracellular cAMP accumulation assay (APJ hcAMP, HTRF)). Settings: HEK293 cells stably expressing human APJ receptor; inhibition of forskolin-mediated cAMP production; Table 1; read-out: hAPJ cAMP EC50 Potency range.
T1 construct: expressed in transfected cells; host or cells: HEK293
T1 sequence (P35414 1-380): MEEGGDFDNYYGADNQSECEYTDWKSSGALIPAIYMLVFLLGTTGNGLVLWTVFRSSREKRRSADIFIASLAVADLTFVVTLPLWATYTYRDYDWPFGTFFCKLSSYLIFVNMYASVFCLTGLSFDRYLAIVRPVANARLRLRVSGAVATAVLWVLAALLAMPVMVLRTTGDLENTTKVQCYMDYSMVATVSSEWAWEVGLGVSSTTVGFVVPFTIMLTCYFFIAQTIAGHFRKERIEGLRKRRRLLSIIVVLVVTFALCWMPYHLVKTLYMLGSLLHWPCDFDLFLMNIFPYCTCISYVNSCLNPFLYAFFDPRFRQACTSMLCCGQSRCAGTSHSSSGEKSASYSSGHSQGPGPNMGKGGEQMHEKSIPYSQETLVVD
Assay type: cell-based
How it was run: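 HEK293 cells stably expressing the receptor (5,000/well) treated with compound plus […] and 2 μM forskolin for 30 min at room temperature; cAMP by HTRF against a cAMP standard curve. EC50 from variable-slope sigmoidal fit; Ymax as % of (Pyr1)apelin-13 inhibition.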

SMILES | EC50 [nM]
CCN(c1ccccc1)c1c(-c2cnn(C)c2)nc(O)c(S(=O)(=O)c2ccc(-c3ccnc(F)c3C)cc2)c1O [Example 149, 5-(ethyl(phenyl)amino)-3-((4-(2-fluoro-3-methylpyridin-4-yl)phenyl)sulfonyl)-6-(1-methyl-1H-pyrazol-4-yl)pyridine-2,4-diol] | 0.01 to 10
CCCCc1nc(O)c(S(=O)(=O)c2ccc(-c3cccnc3C)cc2)c(O)c1N(CC)c1cccc(C#N)c1 [Example 175, 3-((2-butyl-4,6-dihydroxy-5-((4-(2-methylpyridin-3-yl)phenyl)sulfonyl)pyri-dine-3-yl)(ethyl)amino)benzonitrile] | 0.01 to 10
CCCCc1nc(O)c(S(=O)(=O)c2ccc(-c3ccncc3C)cc2)c(O)c1N(c1ccccc1)C(C)C [Example 027, 6-butyl-5-(isopropyl(phenyl)amino)-3-((4-(3-methylpyridin-4-yl)phenyl)sulfonyl)pyridine-2,4-diol] | 0.01 to 10
CCCCc1nc(O)c(S(=O)(=O)c2ccc(-c3ccccc3C(=O)NC)cc2)c(O)c1N(CC)c1cccc(C#N)c1 [Example 185, 4′-((6-butyl-5-((3-cyanophenyl)(ethyl)a-mino)-2,4-dihydroxypyridin-3-yl)sulfonyl)-N-methyl-[1,1′-biphenyl]-2-carboxamide] | 0.01 to 10
CCCCc1nc(O)c(S(=O)(=O)c2ccc(-c3ccncc3C)cc2)c(O)c1N1CCCc2ccccc21 [Example 022, 6-butyl-5-(3,4-dihydroquinolin-1(2H)-yl)-3-((4-(3-methylpyridin-4-yl)phenyl)sulfonyl)pyridine-2,4-diol] | 0.01 to 10
CCCCc1nc(O)c(S(=O)(=O)c2ccc(-c3ccncc3C)cc2)c(O)c1N(C)c1ccc(OC)cc1 [Example 037, 6-butyl-5-((4-methoxyphenyl)(methyl)amino)-3-((4-(3-methylpyridin-4-yl)phenyl)sulfonyl)pyridine-2,4-diol] | 0.01 to 10

The remaining lines, values ahead:

EC50 [nM] | SMILES
0.01 to 10 | CCN(c1ccccc1)c1c(-c2cnn(C)c2)nc(O)c(S(=O)(=O)c2ccc(-c3ccccc3C(=O)N(C)C)cc2)c1O [Example 154, 4′-((5-(ethyl(phenyl)amino)-2,4-dihydroxy-6-(1-methyl-1H-pyrazol-4-yl)pyridin-3-yl)sulfonyl)-N,N-dimethyl-[1,1′-biphenyl]-2-carboxamide]
0.01 to 10 | CCCCc1nc(O)c(S(=O)(=O)c2ccc(-c3ccnc(F)c3C)cc2)c(O)c1N(C)c1cccc(OC)c1 [Example 029, 6-butyl-3-((4-(2-fluoro-3-methylpyridin-4-yl)phenyl)sulfonyl)-5-((3-methoxyphenyl)(methyl)amino)pyridine-2,4-diol]
0.01 to 10 | CC(C)N(c1ccccc1)c1c(-c2ccn(C)n2)nc(O)c(S(=O)(=O)c2ccc(-c3ccc(F)cc3C(N)=O)cc2)c1O [Example 161, 4′-((2,4-dihydroxy-5-(isopropyl(phenyl)amino)-6-(1-methyl-1H-pyrazol-3-yl)pyridin-3-yl)sulfonyl)-4-fluoro-[1,1′-biphenyl]-2-carboxamide]
0.01 to 10 | CCCCc1nc(O)c(S(=O)(=O)c2ccc(-c3ccnc(F)c3C)cc2)c(O)c1N(c1ccccc1)C(C)C [Example 020]
0.01 to 10 | CCN(c1ccccc1)c1c(CC2CC2)nc(O)c(S(=O)(=O)c2ccc(-c3ccccc3C(N)=O)cc2)c1O [Example 147, 4′-((6-(cyclopropylmethyl)-5-(ethyl(phenyl)amino)-2,4-dihydroxypyridin-3-yl)sulfonyl)-[1,1′-biphenyl]-2-carboxamide]
10 to 100 | CCCCc1nc(O)c(S(=O)(=O)c2ccc(-c3cccnc3C)cc2)c(O)c1N(C)c1cccc(Cl)c1 [Example 102, 6-butyl-5-((3-chlorophenyl)(methyl)amino)-3-((4-(2-methylpyridin-3-yl)phenyl)sulfonyl)pyridine-2,4-diol]
0.01 to 10 | CCCCc1nc(O)c(S(=O)(=O)c2ccc(-c3ccnc(F)c3C)cc2)c(O)c1N(CC)c1cccc(C#N)c1 [Example 172, 3-((2-butyl-5-((4-(2-fluoro-3-methylpyridin-4-yl)phenyl)sulfonyl)-4,6-dihydroxypyridin-3-yl)(ethyl)amino)benzonitrile]
0.01 to 10 | CCCCc1nc(O)c(S(=O)(=O)c2ccc(-c3ccc(F)nc3C)cc2)c(O)c1N(c1ccccc1)C(C)C [Example 026, 6-butyl-3-((4-(6-fluoro-2-methylpyridin-3-yl)phenyl)sulfonyl)-5-(isopropyl(phenyl)amino)pyridine-2,4-diol]
0.01 to 10 | CCCCc1nc(O)c(S(=O)(=O)c2ccc(-c3ccccc3C(=O)NC)cc2)c(O)c1N(C)c1cccc(C#N)c1 [Example 137, 4′-((6-butyl-5-((3-cyanophenyl)(methyl)amino)-2,4-dihydroxypyridin-3-yl)sulfonyl)-N-methyl-[1,1′-biphenyl]-2-carboxamide]
0.01 to 10 | CCCCc1nc(O)c(S(=O)(=O)c2ccc(-c3ccnc(F)c3C)cc2)c(O)c1N(C)c1cccc(F)c1 [Example 106, 6-butyl-3-((4-(2-fluoro-3-methylpyridin-4-yl)phenyl)sulfonyl)-5-((3-fluorophenyl)(methyl)amino)pyridine-2,4-diol]
10 to 100 | CCCCc1nc(O)c(S(=O)(=O)c2ccc(-c3ccncc3C)cc2)c(O)c1N(C)c1cccc(OC)c1 [Example 031, 6-butyl-5-((3-methoxyphenyl)(methyl)amino)-3-((4-(3-methylpyridin-4-yl)phenyl)sulfonyl)pyridine-2,4-diol]
0.01 to 10 | CCN(c1cccc(C#N)c1)c1c(-c2ccn(C)n2)nc(O)c(S(=O)(=O)c2ccc(-c3ccncc3C)cc2)c1O [Example 212, 3-((4,6-dihydroxy-2-(1-methyl-1H-pyrazol-3-yl)-5-((4-(3-methylpyridin-4-yl)phenyl)sulfonyl)pyri-din-3-yl)(ethyl)amino)benzonitrile]
10 to 100 | CCCCc1nc(O)c(S(=O)(=O)c2ccc(Br)cc2)c(O)c1N(CC)c1cc(C)cc(C)c1 [Example 134, 3-((4-bromophenyl)sulfonyl)-6-butyl-5-((3,5-dimethylphenyl)(ethyl)amino)pyridine-2,4-diol]
0.01 to 10 | CCCCc1nc(O)c(S(=O)(=O)c2ccc(-c3ccccc3C(=O)N(C)C)cc2)c(O)c1N(C)c1ccccc1C [Example 196, 4′-((6-butyl-2,4-dihydroxy-5-(methyl(o-tolyl)amino)pyridin-3-yl)sulfonyl)-N,N-dimethyl-[1,1′-biphenyl]-2-carboxamide]
0.01 to 10 | CCCCc1nc(O)c(S(=O)(=O)c2ccc(-c3ccncc3C)cc2)c(O)c1N(C)c1cccc(Cl)c1 [Example 110, 6-butyl-5-((3-chlorophenyl)(methyl)amino)-3-((4-(3-methylpyridin-4-yl)phenyl)sulfonyl)pyridine-2,4-diol]

Same assay, conditions: HEK293 cells stably expressing human APJ receptor; inhibition of forskolin-mediated cAMP production; Table 2; read-out: hAPJ cAMP EC50 Potency range

EC50 [nM] | SMILES
0.01 to 10 | CCN(c1ccccc1)c1c(-c2ccn(C)n2)nc(O)c(C(=O)N2CCC(c3ccc(Cl)cn3)C2)c1O (stereo not shown) [Example 200, (3-(5-chloropyridin-2-yl)pyrrolidin-1-yl)(5-(ethyl(phenyl)amino)-2,4-dihydroxy-6-(1-methyl-1H-pyrazol-3-yl)pyridin-3-yl)methanone]
0.01 to 10 | CCN(c1ccccc1)c1c(-c2ccn(C)n2)nc(O)c(C(=O)N2CCC(c3ccc(F)cc3F)C2)c1O (stereo not shown) [Example 201, (3-(2,4-difluorophenyl)pyrrolidin-1-yl)(5-(ethyl(phenyl)amino)-2,4-dihydroxy-6-(1-methyl-1H-pyrazol-3-yl)pyridin-3-yl)methanone]

Same assay, conditions: HEK293 cells stably expressing human APJ receptor; inhibition of forskolin-mediated cAMP production; read-out: Human APJ cAMP Potency range

EC50 [nM] | SMILES
0.01 to 10 | CCCCc1nc(O)c(S(=O)(=O)c2ccc(-n3cc(C)ccc3=O)cc2)c(O)c1N(CC)c1ccccc1 [Example 003, 1-(4-((6-butyl-5-(ethyl(phenyl)amino)-2,4-dihydroxypyridin-3-yl)sulfonyl)phenyl)-5-methylpyridin-2(1H)-one]

Same assay, conditions: hAPJ cAMP EC50 Potency range, HEK293 cells stably expressing human APJ receptor; inhibition of forskolin-mediated cAMP production; Table 1

SMILES | EC50 [nM]
CCCCc1nc(O)c(C(=O)N2CC[C@@H](c3ccccc3)C2)c(O)c1N(C)c1ccccc1 [Example 007, (S)-(6-butyl-2,4-dihydroxy-5-(methyl(phenyl)amino)pyridin-3-yl)(3-phenylpyrrolidin-1-yl)methanone] | 10 to 100
CCCCc1nc(O)c(C(=O)N2CCC(c3ccc(Cl)cn3)C2)c(O)c1N(CC)c1ccccc1 (stereo not shown) [Example 067, (6-butyl-5-(ethyl(phenyl)amino)-2,4-dihydroxypyridin-3-yl)(3-(5-chloropyridin-2-yl)pyrrolidin-1-yl)methanone] | 0.01 to 10

Same assay, conditions: read-out: hAPJ cAMP EC50 Potency range; HEK293 cells stably expressing human APJ receptor; inhibition of forskolin-mediated cAMP production; Table 1

SMILES | EC50 [nM]
CCN(c1ccccc1)c1c(-c2cccc(C)c2)nc(O)c(C(=O)N2CCC(c3ncc(F)cc3F)C2)c1O (stereo not shown) [Example 132, (3-(3,5-difluoropyridin-2-yl)pyrrolidin-1-yl)(5-(ethyl(phenyl)amino)-2,4-dihydroxy-6-(m-tolyl)pyridin-3-yl)methanone] | 0.01 to 10
CCCCc1nc(O)c(C(=O)N2CCC(c3ncc(Cl)cc3F)C2)c(O)c1N(CC)c1ccccc1 (stereo not shown) [Example 072, (6-butyl-5-(ethyl(phenyl)amino)-2,4-dihydroxypyridin-3-yl)(3-(5-chloro-3-fluoropyridin-2-yl)pyrrolidin-1-yl)methanone] | 0.01 to 10
